Laboratory results taken from publication PMC3434127, “Insights into Phosphate Cooperativity and Influence of Substrate Modifications on Binding and Catalysis of Hexameric Purine Nucleoside Phosphorylases” (PLoS ONE, 2012).

Biological target: T1, BsPNP233 (Bacillus subtilis, UniProt O34925)
T1 construct: gene deoD; full length, 233 residues, N-terminal His-tag kept (eight tag residues seen in one crystal form), recombinant from E. coli, homohexamer (D3); active site at dimer interface
T1 sequence (O34925 1-233): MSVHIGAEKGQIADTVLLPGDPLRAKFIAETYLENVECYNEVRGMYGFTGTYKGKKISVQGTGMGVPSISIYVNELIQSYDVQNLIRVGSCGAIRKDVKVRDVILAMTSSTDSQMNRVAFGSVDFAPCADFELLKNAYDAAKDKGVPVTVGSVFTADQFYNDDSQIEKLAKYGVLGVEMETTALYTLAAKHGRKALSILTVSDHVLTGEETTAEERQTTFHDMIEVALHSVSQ
Test: X-ray crystal structure (soaked crystal)
Assay type: binding

[1] = crystals grown in 0.1 M sodium acetate pH 4.6, 3.2 M NaCl, 5% glycerol, 291 K, nucleoside site

Compound | X-ray crystal structure (soaked crystal) [1] | further results
Nc1nc(F)nc2c1ncn2[C@@H]1O[C@H](CO)[C@@H](O)[C@H]1O [F-Ado, 2-fluoradenosine] | The crystal structure of BsPNP233-(F-Ado) complex had two BsPNP233 subunits per asymmetric unit | 
O=c1[nH]cnc2nc[nH]c12 [Hyp, hypoxanthine] |  | X-ray crystal structure (soaked crystal) (crystals grown in 0.1 M sodium acetate pH 4.6, 3.2 M NaCl, 5% glycerol, 291 K, purine-binding site, glycerol in ribose site): crystal structures of BsPNP233 in complex with hypoxanthine (Hyp) and adenine (Ade)
Nc1ncnc2c1ccn2[C@@H]1O[C@H](CO)[C@@H](O)[C@H]1O [TBN, tubercidin] | TBN presented an interaction mode very similar to that seen for the natural substrate adenosine | 
Nc1nc2c(ncn2COC(CO)CO)c(=O)[nH]1 [GCV, ganciclovir] | GCV binds to the nucleoside binding site of BsPNP233 | 
Nc1nc2c(ncn2COCCO)c(=O)[nH]1 [ACV, aciclovir] |  | X-ray crystal structure (soaked crystal) (crystals grown in 0.1 M sodium acetate pH 4.6, 3.2 M NaCl, 5% glycerol, 291 K, nucleoside site, two conformations of the acyclic chain, half-occupancy phosphate modelled): Aciclovir binds to the BsPNP233 nucleoside binding site
Nc1nc(Cl)c2ncn([C@@H]3O[C@H](CO)[C@@H](O)[C@H]3O)c2n1 [Cl-Guo, 6-chloroguanosine] | The molecule Cl-Guo displays a similar binding mode to that observed for dGuo | 
Nc1ncnc2c1ncn2[C@@H]1O[C@H](CO)[C@@H](O)[C@H]1O [Ado, adenosine] | The base moiety of adenosine (Ado) binds to the BsPNP233 active site | 
Nc1nc2c(nc(Br)n2[C@@H]2O[C@H](CO)[C@@H](O)[C@H]2O)c(=O)[nH]1 [Br-Guo, 8-bromoguanosine] | The ribosyl moiety of Br-Guo presents a typical C4′–endo conformation and binds to the active site | 
Nc1ncnc2[nH]cnc12 [Ade, adenine] |  | X-ray crystal structure (soaked crystal) (purine-binding site, solved without (4DAO) and with sulfate (form I, 4D8V)): The BsPNP233-Ade binary complex was solved with (BsPNP233-Ade-SO4) or without (BsPNP233-Ade) sulfate ion
